From patent publication US10544090B2, “Anthraquinone analogs and methods of making and using thereof” (Georgia State University Research Foundation, Inc., priority 2012, dated 2020)
Where two headings read alike, the source gives them in different places.

Key:
[1] = test system: KB; experiment: MTT cytotoxicity assay, KB (Table 2); format: cell-based; conditions: 48 h incubation; for IC50: read-out: IC50 (μM) against KB
Experimental: (§1) The in vitro cytotoxicity studies of the synthesized compounds were performed in three different cell lines (HeLa, Hek, and KB). The activities of the herein described analogues were compared to that of rhein itself and doxorubicin. Due to the poor solubility of the compounds, all of the solutions used for biological testing were prepared using DMSO as solvent.

[2] = test system: HeLa; experiment: MTT cytotoxicity assay, HeLa (Table 2); conditions: for IC50 / IC50 (μM) against HeLa: Table 2; for cytotoxicity against HeLa cells compared to rhein: in words
Experimental: as §1

[3] = test system: Hek; experiment: MTT cytotoxicity assay, Hek (Table 2); format: cell-based; conditions: for IC50: read-out: IC50 (μM) against Hek
Experimental: as §1

[4] = test system: MOLT4; experiment: MTT cytotoxicity evaluation of series 1 and 2 rhein analogues, MOLT4 (Tables 3, 4); conditions: for cytotoxicity against MOLT4 compared with rhein: in words
[5] = test system: HeLa; experiment: MTT cytotoxicity evaluation of series 1 and 2 rhein analogues, HeLa (Tables 3, 4); format: cell-based; conditions: for potency in HeLa cells compared with rhein: in words
[6] = test system: HeLa; experiment: Cytotoxicity against cancer cell lines (Example 5), Hela; format: cell-based; conditions: Tables 5-12
Experimental: (§2) All of the compounds synthesized were tested against a number of cancer cell lines: Hela KB, Cos7, Molt4, K562, EU1, and T98G. The cancer cell lines vary from leukemia cell lines (Molt4, EU, K562) to solid-state tumor cell lines (Hela, KB, Cos7) and the drug resistant cell lines (T98G).

[7] = test system: KB; experiment: Cytotoxicity against cancer cell lines (Example 5), KB; format: cell-based; conditions: Tables 5-12
Experimental: as §2

[8] = test system: Cos7; experiment: Cytotoxicity against cancer cell lines (Example 5), Cos7; format: cell-based; conditions: Tables 5-12
Experimental: as §2

[9] = test system: K562; experiment: Cytotoxicity against cancer cell lines (Example 5), K562; format: cell-based; conditions: Tables 5-12
Experimental: as §2

[10] = test system: MOLT4; experiment: Cytotoxicity against cancer cell lines (Example 5), Molt4; format: cell-based
Experimental: as §2

[11] = test system: T98G; experiment: Cytotoxicity against cancer cell lines (Example 5), T98G; format: cell-based; conditions: Tables 5-12; drug resistant cell line
Experimental: as §2

[12] = test system: EU1; experiment: Cytotoxicity against cancer cell lines (Example 5), EU1; format: cell-based; conditions: Tables 5-12
Experimental: as §2

[13] = read-out: IC50 (μM) against HeLa, MTT, 48 h incubation
[14] = Homo sapiens, MOLT-4, read-out: IC50 (μM) against MOLT4
[15] = Homo sapiens, HeLa, MTT, Tables 3 and 4, read-out: IC50 (μM) against HeLa
[16] = Homo sapiens, HeLa, 48 h, read-out: IC50 (μM) against HeLa, MTT, 48 h incubation
[17] = Homo sapiens, HEK293, 48 h incubation
[18] = read-out: IC50 (μM) against MOLT4, MTT, Tables 3 and 4
[19] = MTT, Tables 3 and 4, read-out: IC50 (μM) against HeLa
[20] = Tables 5-12, read-out: IC50 Molt4

## O=C(CBr)NCCCOCCOCCOCCCNC(=O)c1cc(O)c2c(c1)C(=O)c1cccc(O)c1C2=O [Compound 22, 1,8-Dihydroxy-3-(18′-bromo-aceta-6′,9′,12′-trioxa-2′,16′-tridecanediamido)-anthraquinone]
[1]
  IC50: 9 µM
[2]; [13]
  IC50: 7 µM
[3]; 48 h incubation
  IC50: 2.2 µM

## O=C(CN1CCCCC1)Nc1cc(O)c2c(c1)C(=O)c1cccc(O)c1C2=O [Compound 9d, 1,8-Dihydroxy-3-(2′-piperidinyl-acetamido)-anthraquinone]
[4]; [14]
  IC50: 4.1 µM
[5]; [15]
  IC50: 33 µM

## O=C(CBr)NCCCCNC(=O)c1cc(O)c2c(c1)C(=O)c1cccc(O)c1C2=O [Compound 18, 1,8-Dihydroxy-3-(9′-bromo-aceta-2′,7′diamido)-anthraquinone]
[1]
  IC50 (μM) against KB: low micro molar
  IC50: 4.8 µM
[2]; MTT, 48 h incubation
  IC50 (μM) against HeLa: low micro molar
[2]
  cytotoxicity against HeLa cells compared to rhein: significant improvement
[2]; [13]
  IC50: 3 µM
[3]; 48 h incubation
  IC50 (μM) against Hek: low micro molar
  IC50: 1.4 µM

## COc1cccc2c1C(=O)c1c(OC)cc(NC(=O)CBr)cc1C2=O [Compound 13, 1,8-dimethoxy-3-(2′-bromo-acetamido)-anthraquinone]
[1]; Homo sapiens, KB, 48 h
  IC50: 38 µM
[2]; [16]
  IC50: 8 µM
[3]; [17]
  IC50: 2.3 µM

## O=C1c2cccc(O)c2C(=O)c2c(O)cc(-c3cccs3)cc21 [Compound 26b, 1,8-Dihydroxy-3-(thiophen-2′-yl)-anthraquinone]
[4]
  cytotoxicity against MOLT4 compared with rhein: decreased cytotoxicity
[4]; [18]
  IC50: > 100 µM
[5]; [19]
  IC50: > 100 µM

## O=C(CI)NCCCOCCOCCOCCCNC(=O)c1cc(O)c2c(c1)C(=O)c1cccc(O)c1C2=O [Compound 23, 1,8-Dihydroxy-3-(18′-iodo-aceta-6′,9′,12′-trioxa-2′,16′-tridecanediamido)-anthraquinone]
[1]
  IC50: 8 µM
[2]; [13]
  IC50: 5.8 µM
[3]; 48 h incubation
  IC50: 4 µM

## O=C(CCl)NCCCCNC(=O)c1cc(O)c2c(c1)C(=O)c1cccc(O)c1C2=O [Compound 17, 1,8-Dihydroxy-3-(9′-chloro-aceta-2′,7′diamido)-anthraquinone]
[1]
  IC50: 19 µM
[2]; [13]
  IC50: 16 µM
[3]; 48 h incubation
  IC50: 8 µM

## O=C(CCl)Nc1cc(O)c2c(c1)C(=O)c1cccc(O)c1C2=O [Compound 5, 1,8-Dihydroxy-3-(2′-chloro-acetamido)-anthraquinone]
[1]
  IC50 (μM) against KB: low micro molar
[1]; Homo sapiens, KB, 48 h
  IC50: 4.5 µM
[2]; [16]
  IC50: 4 µM
[2]; MTT, 48 h incubation
  IC50 (μM) against HeLa: low micro molar
[2]
  cytotoxicity against HeLa cells compared to rhein: significant improvement
[3]; 48 h incubation
  IC50 (μM) against Hek: low micro molar
[3]; [17]
  IC50: 4 µM

## Cc1noc(C)c1-c1cc(O)c2c(c1)C(=O)c1cccc(O)c1C2=O [Compound 26a, 1,8-Dihydroxy-3-(3′,5′-dimethyl-isoxazol-4′-yl)-anthraquinone]
[4]; [18]
  IC50: 14 µM
[5]; [19]
  IC50: 16 µM
[5]
  potency in HeLa cells compared with rhein: moderate improvement in potency

## O=C1c2cccc(O)c2C(=O)c2c(O)cc(-c3ccc(O)cc3)cc21 [Compound 26g, 1,8-Dihydroxy-3-(4′-hydroxyphenyl)-anthraquinone]
[4]; [14]
  IC50: 21 µM
[5]; [15]
  IC50: 9.9 µM
[5]
  potency in HeLa cells compared with rhein: moderate improvement in potency

## O=C1c2cccc(O)c2C(=O)c2c(O)cc(Sc3ccccc3)cc21 [Compound 24a, 1,8-Dihydroxy-3-(phenylthio)-anthraquinone]
[4]
  potency increase compared with rhein, MOLT4: at least 30 fold
[4]; [14]
  IC50: 1.4 µM
[4]; MTT, Tables 3 and 4
  IC50 (μM) against MOLT4: single digit μM level
[5]
  potency increase compared with rhein, HeLa: at least 30 fold
[5]; [15]
  IC50: 3.4 µM
[5]; MTT, Tables 3 and 4
  IC50 (μM) against HeLa: single digit μM level

## CN1CCN(CC(=O)Nc2cc(O)c3c(c2)C(=O)c2cccc(O)c2C3=O)CC1 [Compound 9b, 1,8-Dihydroxy-3-(2′-(4″-methylpiperazin-1″-yl)-acetamido)-anthraquinone]
[4]; [14]
  IC50: 3.1 µM
[5]; [15]
  IC50: 5.8 µM

## COc1ccc(-c2cc(O)c3c(c2)C(=O)c2cccc(O)c2C3=O)cc1 [Compound 26f, 1,8-Dihydroxy-3-(4′-methoxyphenyl)-anthraquinone]
[4]; [14]
  IC50: 29 µM
[5]; [15]
  IC50: > 100 µM
[5]; Homo sapiens, HeLa, less than 50% cells killed at highest concentration, R^2 < 0.8, read-out: IC50 (μM) against HeLa, value inside parenthesis calculated by Prism 4 using sigmoidal curve fitting
  IC50: 20 µM

## O=C(CBr)Nc1cc(O)c2c(c1)C(=O)c1cccc(OCc3ccccc3)c1C2=O [BW-AQ-127]
[6]
  IC50: 5.6 ± 0.63 µM
[7]
  IC50: 5.4 ± 2.5 µM
[8]
  IC50: 1.7 ± 0.43 µM
[9]
  IC50: 1.95 ± 0.58 µM
[10]; cell line not given, matches Table 8 Molt4, read-out: IC50 value
  IC50: 0.028 µM
[11]
  IC50: 13.8 ± 2.5 µM
[12]
  IC50: 0.084 ± 0.058 µM

## O=C(CN1CCOCC1)Nc1cc(O)c2c(c1)C(=O)c1cccc(O)c1C2=O [Compound 9c, 1,8-dihydroxy-3-(2′-morpholino-acetamido)-anthraquinone]
[4]; [14]
  IC50: 25 µM
[5]; [15]
  IC50: 13 µM

## C=CCOc1cccc2c1C(=O)c1c(OCC=C)cc(NC(=O)CCl)cc1C2=O [BW-AQ-161]
[6]
  IC50: > 20 µM
[7]
  IC50: > 20 µM
[8]
  IC50: > 20 µM
[9]
  IC50: > 10 µM
[10]; [20]
  IC50: > 10 µM
[11]
  IC50: > 50 µM
[12]
  IC50: > 10 µM

## O=C(OCc1ccccc1)c1cc(OCc2ccccc2)c2c(c1)C(=O)c1cccc(OCc3ccccc3)c1C2=O [BW-AQ-148]
[6]
  IC50: 18.6 µM
[7]
  IC50: > 50 µM
[8]
  IC50: > 50 µM
[9]
  IC50: > 25 µM
[10]; [20]
  IC50: > 25 µM
[11]
  IC50: > 50 µM
[12]
  IC50: > 25 µM

## O=C1c2cccc(O)c2C(=O)c2c(O)cc(-c3cccs3)cc21 [BW-AQ-140]
[6]
  IC50: 3.1 ± 0.68 µM
[7]
  IC50: 3.4 ± 1.02 µM
[8]
  IC50: 2.2 ± 0.41 µM
[9]
  IC50: 3.2 ± 1.5 µM
[10]; [20]
  IC50: 0.209 ± 0.044 µM
[11]
  IC50: 13.8 ± 4 µM
[12]
  IC50: 0.69 ± 0.152 µM

## C=CCOc1cccc2c1C(=O)c1c(OCC=C)cc(C(=O)N=[N+]=[N-])cc1C2=O [BW-AQ-154]
[6]
  IC50: 24.3 µM
[7]
  IC50: > 50 µM
[8]
  IC50: 19.4 µM
[9]
  IC50: 19.5 µM
[10]; [20]
  IC50: 6.66 µM
[11]
  IC50: > 50 µM
[12]
  IC50: 3 µM

## O=C1c2cccc(O)c2C(=O)c2c(O)cc(-c3ccc(Sc4ccccc4)nc3)cc21 [Compound 26d, 1,8-Dihydroxy-3-(6′-phenylthio-pyridin-3′-yl)-anthraquinone]
[4]; [18]
  IC50: 35 µM
[5]; [19]
  IC50: > 100 µM

## Cc1cc(-c2cc(O)c3c(c2)C(=O)c2cccc(O)c2C3=O)ccc1N(C)C [Compound 26c, 1,8-Dihydroxy-3-(4′-dimethylamino-3′-methylphenyl)-anthraquinone]
[4]; [14]
  IC50: > 100 µM
[4]
  cytotoxicity against MOLT4 compared with rhein: decreased cytotoxicity
[5]; [15]
  IC50: 68 µM
[5]
  potency in HeLa cells compared with rhein: moderate improvement in potency

## CCN(CC)CC(=O)Nc1cc(O)c2c(c1)C(=O)c1cccc(O)c1C2=O [Compound 9a, 1,8-Dihydroxy-3-(2′-diethylamino-acetamido)-anthraquinone]
[4]; [14]
  IC50: 3 µM
[5]; [15]
  IC50: 6.1 µM

## CCOc1cccc2c1C(=O)c1c(OCC)cc(NC(=O)CO)cc1C2=O [BW-AQ-157]
[6]
  IC50: 6.35 µM
[7]
  IC50: 9.5 µM
[8]
  IC50: 5 µM
[9]
  IC50: 1.8 µM
[10]; [20]
  IC50: 0.42 µM
[11]
  IC50: 15.4 µM
[12]
  IC50: 0.358 µM

## CC(C)(C)OCc1ccc(-c2cc(O)c3c(c2)C(=O)c2cccc(O)c2C3=O)cc1 [Compound 26e, 1,8-Dihydroxy-3-(4′-t-butoxymethyl-phenyl)-anthraquinone]
[4]; [14]
  IC50: 22 µM
[5]; [15]
  IC50: > 100 µM
